Results published in patent publication US20030095933A1, “Anti-aging skin care composition and uses thereof” (priority 2001, published 2003).

Tests used:
[1] = test system: facial skin of a human subject; assay: Topical application of aqueous solution to facial skin of a human subject before bedtime
Procedure: Topical Application of an Aqueous Solution of Vitamin C. A one gram tablet of Vitamin C (Ascorbic acid; GNC Brand, GNC, Inc.) was dissolved to completion in 1 tablespoon of water. The resulting solution was applied to the facial skin of a human subject immediately before bedtime.
Direct Comparisons of Aqueous Vitamin C Solution to Aqueous Vitamin C Solutions Containing Additional Ingredients. Several direct comparisons were performed to determine whether the addition of additional components could improve the results observed with Vitamin C alone. In the first of these tests, an aqueous solution comprising Vitamin C alone (3 g) was applied to one side of the subject's face immediately before bedtime, while an aqueous solution comprising 3 g of Vitamin C and 600 mg of N-acetyl-cysteine (GNC, Inc.) was applied to the other half of the subject's face at the same time.
A second comparison was then performed. In this study, an aqueous solution comprising Vitamin C (3 g) and Vitamin B5 (500 mg, obtained from GNC, Inc.) was applied to one side of the subject's face immediately before bedtime, while an aqueous solution comprising 3 g of Vitamin C, 600 mg of N-acetyl-cysteine and 10 mg zinc (GNC, Inc.) was applied to the other half of the subject's face at the same time.
Tablets containing 3 g of Vitamin C, 100 mg of Vitamin B1, 500 mg of Vitamin B5 and 500 mg of N-acetyl-cysteine, all obtained from obtained from GNC, Inc., were ground into a powder and mixed together. The mixture was then added to one tablespoon of water and allowed to dissolve to completion, which took approximately 10 hrs. The resulting solution was applied to the facial skin of a human subject immediately before bedtime.
Optimization of ranges for each of the components was determined. For example, the amount of Vitamin C present in the composition described above in Example 2 was varied from 0 g to 5 g.
In an attempt to reduce the slight irritation caused by application of the anti-aging skin care composition and to enhance its effects on fine lines and wrinkles, 100 mg of lipoic acid was added to the anti-aging skin care composition comprising 3 g of Vitamin C, 100 mg of Vitamin B1, 500 mg of Vitamin B5 and 500 mg of N-acetyl-cysteine. […] The resulting solution was again applied to the facial skin of a human subject immediately before bedtime.

[2] = Miscibility of Vitamin E with the aqueous Vitamin C solution; type: physicochemical; conditions: oils and powders containing Vitamin E
Procedure: Addition of Vitamin E Prevented by Poor Solubility. […] Thus, no further studies of the effects of the addition of Vitamin E to the various anti-aging skin care compositions described herein were performed.

O=C1O[C@H]([C@@H](O)CO)C(O)=C1O [Vitamin C, Ascorbic acid]
redness or burning of the facial skin upon waking ([1]; after approximately 6-8 hrs of sleep): slight redness of the facial skin
appearance of the facial skin upon waking ([1]; after approximately 6-8 hrs of sleep, overnight application): noticeably improved
sensation upon initial contact with the facial skin ([1]; immediately after application, before the solution dried): slight burning sensation
redness and irritation following subsequent applications ([1]; subsequent applications, dose of Vitamin C increased to 2 g and up to 5 g): subsided greatly

Vitamin E
miscibility with the aqueous solution containing Vitamin C [2]: neither oils nor powders containing Vitamin E were miscible
